# Measurements: a melting point compilation (Tetko et al.; mined from patent text by program, amines drawn as free bases though some values may be those of a salt)
row,SMILES,melting point
1,N=C(N)NCCC[C@H](NC(=O)CNC(=O)C(CS)Cc1ccccc1)C(=O)O (stereo partly drawn),120 to 137 °C
2,CSc1cc(C)nc(SC)c1NC(=O)CCN1CCN(CCSc2nc3ccccc3o2)CC1,110 to 112 °C
3,OCCOc1ccsc1,38 to 39 °C
4,C#Cc1ccc(C2=C(C#N)C(=C(C#N)C#N)OC2(C)C)cc1,225 °C
5,O=S(=O)(NC1CCCCC1)c1ccc(Cn2cnc3ccccc32)cc1,192 to 193 °C
6,CCC(=O)COc1nn(CC(=O)CC)c(-c2ccc(F)cc2)c1-c1ccc(S(C)(=O)=O)cc1,56 to 58 °C
7,Cn1ncc2[nH]c3ccc(Cc4cccc(C(N)=O)c4)cc3c(=O)c21,> 300 °C
8,COc1cc(-c2ncnc(OC)c2Cl)c(F)cc1Cl,142 to 143 °C
9,CCCCCCCCc1c(C)nc2cc(C)nn2c1O,199 °C
10,Cc1ccc(C2C3=C(CC(C)(C)CC3=O)NC3=C2C(=O)CC(C)(C)C3)cc1[N+](=O)[O-],> 300 °C
11,CCC(CC)C(NS(=O)(=O)c1ccc(Br)s1)c1ccnn1-c1ccccc1 (stereo not drawn),120 to 121 °C
12,Cc1nn(-c2cccc(C(F)(F)F)c2)cc1C(=O)O,166 to 168 °C
13,c1ccc(C(c2ccc3[nH]c(-c4ccccn4)nc3c2)n2ccnc2)cc1 (stereo not drawn),123 °C
14,COc1ccc(Cl)cc1S(=O)(=O)N(C)c1ccccc1,88 to 89 °C
15,CSC(=S)C1(c2ccccn2)OCCCS1 (stereo not drawn),116 °C
16,CC(=O)Nc1ccc(OC(=O)COCc2ccccc2)cc1,106 to 109 °C
17,O=C(Cc1ccccc1Cl)Nc1ccc(C(=O)N2Cc3ccccc3Cc3ccccc32)cc1,191 to 194 °C
18,O=C(NCc1ccc(Br)cc1)c1cn(N2CCOCC2)c2ccc(CN3CCOCC3)cc2c1=O,200 to 202 °C
19,C=CCN(CC=C)c1nc(NC(=O)OCC(C)C)n2oc(=O)nc2n1,161 to 163 °C
20,CCOC(=O)C1CN(S(=O)(=O)c2ccc3cc(Br)ccc3c2)CCN1C(=O)C1CCN(c2ccncc2)CC1 (stereo not drawn),117 to 121 °C
21,COc1c(N2CCN(C)CC2)c(F)cc2c(=O)c(C(=O)O)cn(C3CC3)c12,221 to 222 °C
22,COc1cc(N)c(Cl)cc1C(=O)NCC1CCN(CCCC(=O)c2ccc(O)cc2)CC1,199 to 201 °C
23,Cc1cccc(S(=O)(=O)N2Cc3ccccc3C2)c1,175 to 177 °C
24,Cc1cc(C)c(C=NCc2ccc(Cl)nc2)c(C)c1,47 to 48 °C
25,COC(=O)c1cc(C(=O)CNC(C)(C)Cc2ccc3c(c2)OCO3)ccc1OCc1ccccc1,134 to 141 °C
26,N#CCCNC(=O)c1cccc(-c2ccc3c(c2)C(Oc2ccc(Cl)cc2Cl)CCC3)c1 (stereo not drawn),150 to 151 °C

row,SMILES,melting point
1,Cc1nccc(NC(=O)C(CC2CCCC2)c2ccc(S(C)(=O)=O)c(C#N)c2)n1 (stereo not drawn),89 to 94 °C
2,Cc1ccc(-c2ccc3c(c2)C=C(C(=O)N[C@H]2CC[C@H](CN(C)C4CCN(C(=O)OC(C)(C)C)CC4)CC2)CCO3)cc1,146 to 150 °C
3,COC(=O)c1cc(O)cc(-c2ccccc2)c1,108 to 110 °C
4,Cc1ccc(C(C)(O)P(O)O)cc1 (stereo not drawn),115 °C
5,Cc1cc(NC(=O)C(CS)Cc2ccccc2)c(C)c(C(=O)O)c1 (stereo not drawn),180 to 182 °C
6,O=C(CS(=O)Cc1cccnc1)C12CC3CC(CC(C3)C1)C2 (stereo not drawn),116 to 119 °C
7,O=C(NC(=O)c1c(F)cccc1F)Nc1cc(Cl)c(Oc2ccc(S(=O)(=O)c3ccc(Cl)cc3)cc2)c(Cl)c1,207 to 209 °C
8,O=C(NCc1ccc(C(=O)C(F)(F)F)cc1)c1cccnc1Oc1cccnc1,134 to 136 °C
9,c1ccc(CN2CCN(CC3CCc4ccccc4O3)CC2)cc1 (stereo not drawn),> 230 °C
10,CCOc1cccc(C(=O)Nc2ccc(C(=O)N3CCCc4ccccc43)cc2)c1,170 to 172 °C
11,COC(=O)C(C)=Cc1ccc(OCCCNc2ccc(Cl)cc2)cc1,62 to 64 °C
12,CCCCCS(=O)(=O)NC(=O)/C=C/c1cc(OCCOC)nn1Cc1ccc(Cl)cc1Cl,82 to 85 °C
13,Cc1ccc2c(c1)CCN1C2CC(=O)C2CCCCC21 (stereo not drawn),101 to 121 °C
14,CCCCCCc1cc2c(s1)NC(=O)CN=C2c1ccccc1C,162 to 163 °C
15,O=C1C(=Cn2ccnc2)C(c2ccccc2)Oc2ccccc21 (stereo not drawn),129 to 131 °C
16,Cc1c(C)c2c(c(C)c1NC(=O)CC(C)(C)C)C(O)(c1ccccn1)C(C)(C)O2 (stereo not drawn),205 to 207 °C
17,Cc1ccccc1Sc1cncc2sc(C(N)=O)cc12,170 to 172 °C
18,O=c1c2cc(F)c(N3CCCC3)cc2n(-c2ccc(F)cc2)c(=O)n1O,183 to 185 °C
19,N#Cc1ccc(OCCCc2cc3c(cc2OCc2ccccc2)CC(CCc2ccccc2)O3)cc1 (stereo not drawn),154 to 157 °C
20,COCCOc1ccc(/C=C/C2(O)CN3CCC2CC3)cc1 (stereo not drawn),164 to 166 °C
21,Cc1coc(NC(=O)CCCCl)n1,98 °C
22,COc1ccc(N2CCN(C3CCN(CC(O)COc4cccc5[nH]c(C)cc45)CC3)C2=O)cc1 (stereo not drawn),155 to 157 °C
23,CCCOc1ccc(S(=O)(=O)N2CCN(CC)CC2)cc1-c1nc2cc3nc[nH]c3cc2c(=O)[nH]1,194 to 196 °C
24,CC(=O)OCCSCn1cnc2c(Cl)ncnc21,82 to 87 °C
25,COc1ccc(S(N)(=O)=O)cc1C(=O)C(C)N=[N+]=[N-] (stereo not drawn),113 to 114 °C
26,Cc1ccccc1C1SC2(CCN(C)CC2)c2ccccc21 (stereo not drawn),132 to 134 °C

row,SMILES,melting point
1,Cc1cc(Oc2ccccc2)nc2ccccc12,101 °C
2,N#CCCN1CC2C(C1)C2Nc1ncc2cc(-c3ccccc3Cl)c(=O)n(C3CC3)c2n1 (stereo not drawn),150 to 152 °C
3,CC(Br)c1ccc(-c2nc3ccccc3o2)cc1 (stereo not drawn),128 to 131 °C
4,CC1Cc2cc(Br)cc(S(N)(=O)=O)c2O1 (stereo not drawn),167 to 169 °C
5,COc1ccc(S(=O)(=O)Nc2ccccc2NC(=O)c2cccs2)cc1,136 to 137 °C
6,CCOC(=O)c1nc(N)sc1C(=O)C(C)Br (stereo not drawn),158 to 160 °C
7,O=C(Cn1ccnc1)c1ccc(-c2ccccc2)cc1,198 °C
8,CC(=O)N1CCc2cc(C[C@@H](C)NCCOc3ccccc3OCC(F)(F)F)cc(C(N)=O)c21,144 to 146 °C
9,CC(C)c1ccccc1-n1c(=O)[nH]c2c(C(N)=O)nc(-c3ccc(-c4nc[nH]n4)cc3)nc21,368 °C
10,Cc1nn(-c2cc3nc(S)sc3cc2F)c(=O)n1C,299 to 301 °C
11,CCOC(=O)C(CCC#N)(C(=O)OCC)c1ncc(Br)cc1[N+](=O)[O-],58 to 62 °C
12,CCCCCCCCCCCCC(=O)CC(O)Cc1ccccc1 (stereo not drawn),40 to 43 °C
13,C=C1CC2(C)C(=O)CC(O)C2C2CCC3=CC(=O)CCC3C12 (stereo not drawn),237 °C
14,C=CC(C)(C)C(O)(COc1ccc(-c2ccccc2)cc1)Cn1ccnc1 (stereo not drawn),151 to 153 °C
15,O=C(Cc1ccccc1)c1ccc(OCCN2CCCC2)cc1,77 to 78 °C
16,Cc1cc(C)n(C(=O)c2cn3c(C)csc3n2)n1,172 to 176 °C
17,O=C(/C=C/c1cccnc1)NCCc1cccc(OCc2ccccc2)c1,115 to 116 °C
18,Cc1cccc(Cl)c1N1CCCN(C(C)C)C1=S,135 to 136 °C
19,CNCCOc1ccc(C2=C(c3ccccc3)CCCc3cc(O)ccc32)cc1,184 to 187 °C
20,CCc1ccc2c(c1)C=Cc1oc(C)nc1C2c1cn(Cc2nc(C(=O)O)co2)c(=O)[nH]c1=S (stereo not drawn),210 °C
21,COC(=O)c1cccc(OCc2ccc(Cl)c(Cl)c2)c1,87 to 88 °C
22,CC(=O)Oc1ccc2sc(S(N)(=O)=O)cc2c1,129 to 132 °C
23,Cc1ccccc1C1C(C#N)=C(c2cccs2)Nc2n[nH]cc21 (stereo not drawn),276 °C
24,CC(=O)NC(C)Cc1ccc(C=CC(=O)O)cc1 (stereo not drawn),207 to 208 °C
25,COc1ccc(-n2nc(N3CCN(C#N)CC3)c3ccccc32)cc1,118 to 120 °C
26,COC(=O)Nc1nc(C)c(-c2nc3ccccc3c(=O)n2-c2ccc(Cl)cc2)s1,> 275 °C

row,SMILES,melting point
1,O=Cc1ccccc1-c1noc2cc(Cl)ccc12,116 to 117 °C
2,CC(C)(C)OC(=O)Nc1ccc2c3c(cc([N+](=O)[O-])c2c1)N(C(=O)C(F)(F)F)CC3CCl (stereo not drawn),219 to 220 °C
3,c1ccc(-c2nc(CCCCCCc3nnn[nH]3)oc2-c2ccccc2)cc1,132 °C
4,C1=CC2=c3ccccc3=NC2=C1,143 to 145 °C
5,Oc1cc2c(Cl)cc(Br)cc2cc1Br,156 to 158 °C
6,COc1ccc2c(C3=CCN(C[C@H](O)COc4cccc5[nH]ccc45)CC3)c[nH]c2c1,155 to 160 °C
7,CC=NN(C(=O)c1ccc(Cl)cc1)c1ccc(OC)c(F)c1,97 to 99 °C
8,O=[N+]([O-])c1sc2ccc(Cl)cc2c1Br,176 to 178 °C
9,CON(O)C(=O)c1ccccc1,58 to 60 °C
10,C=Cn1cc(C(=O)O)c(=O)c2cc(F)c(N3CCC(N)C3)nc21 (stereo not drawn),253 to 257 °C
11,COc1cccc2c1OCC(C#N)=C2,105 to 106 °C
12,CO/C=C(/C(=O)OC)c1ccccc1CSc1nc2ccccc2s1,77 to 78 °C
13,OC(CCc1cccnc1)CSc1ccc2ccccc2c1 (stereo not drawn),90 to 92 °C
14,CCCCN1C(=O)C2C3CCC(O3)C2C1=O (stereo not drawn),82 to 83 °C
15,OCc1nn(-c2ccc(Br)cc2)c2c1CCCC2,126 to 127 °C
16,OC(Cc1ccccc1Cl)(Cn1ccnc1S)C1(Cl)CC1 (stereo not drawn),124 to 126 °C
17,CCCS(=O)(=O)Nc1ccc(C(=O)c2nc(-c3cccc(C(=O)O)c3)c3ccccn23)cc1OC,145 °C
18,Cc1c(-c2ncc([N+](=O)[O-])n2C)cnn1-c1ccccc1,194 °C
19,CCNc1nc(OC)c(C(=O)NC2CCN(C3CCCCC3)C2)nc1Cl (stereo not drawn),171 to 173 °C
20,c1ccc(C2CCNC3=NCCN32)cc1 (stereo not drawn),146 °C
21,COC(=O)c1c(-c2ccccc2)nn2c1-c1ccccc1CC2,112 to 113 °C
22,CC(C)(C)NS(=O)(=O)c1ccc(S(N)(=O)=O)s1,116 to 120 °C
23,CC(C)(C)[Si](C)(C)OC1CN(c2ccc(N3C[C@H](CN=[N+]=[N-])OC3=O)cc2F)C1,121 to 122 °C
24,CCOC(Cc1ccc(OCCN2CCOc3ccccc32)cc1)C(=O)NCc1ccccc1 (stereo not drawn),94 to 96 °C
25,CC(C)(C)OC(=O)N1CCC(Oc2ccc3c(c2)NC(=O)CC3)CC1,158 to 160 °C
